{"source": "patent US20210392936A1", "about": "“Nutritional composition comprising urea and non-digestible oligosaccharides” (N.V. Nutricia, priority 2018, published 2021)", "type_in_all_cases": "cell-based", "key": {"[1]": {"test_system": "urease positive Bifidobacteria (mix of Bifidobacterium longum subspecies infantis strains and Bifidobacterium bifidum ATCC29521)", "assay": "Fermenter growth of urease positive Bifidobacteria mix with or without urea and CO2 (Example 3, first experiment)", "conditions": "urea N source (100 mM), lactose 20 g/l", "text": "(§1) The following strains were used: Bifidobacterium breve DSM20213, which is the type strain of B. breve and urease negative. A mix of Bifidobacterium longum subspecies infantis strains was used that were predicted to be urease positive, to increase the chance of having a urease activity. […] Strains used were a mix of Bifidobacterium longum spp infantis DSM20088 (type strain), B. infantis M-63 (Morinaga), B. longum subspecies infantis ATCC 17930, B. longum subspecies infantis DN_163_0041 isolated from the faeces of a bottle-fed infants, B. infantis DN_163_0046 and B. longum ssp. infantis R-0033 (Lallemand) and Bifidobacterium bifidum ATCC29521 (type strain).\n(§2) g/l yeast extract, 0.75 g/l tryptone, 3 g/l KH2PO4, 4.8 g/l K2HPO4, 0.2 g/l MgSO4, 0.5 g Cysteine.HCl, 15 g Sodium Propionate, supplemented with 10 ml vitamin mix and 10 ml metal mix from 100× concentrates (Teusink et al. 2005, AEM, Vol 71 (issue 11) p. 7253-7262) and 100 μM NiCl. The pH of this medium is 6.8 (+/−0.05). As carbon source 20 g/l lactose was used and when appropriate urea was added to a final concentration of 100 mM. The medium was sterilized using filtration step with a 0.22 μm filter. […] Precultures of bifidobacterium strains were grown statically in absence of urea at 37° C. in an anaerobic atmosphere (90% N2, 5% Hz, 5% CO2).\n(§3) Inoculation occurred from a single colonies grown on TOS-mupirocin agar plates as known in the art. The main cultures (in the fermenters) were performed with 1×BASE supplemented with 0, 15, 50 or 100 mM urea (if applicable). During fermentation the headspace was flushed with N2 gas or with an anaerobic gas mixture ((90% N2, 5% H2, 5% CO2). CO2 is known to be needed for the growth of most Bifidobacteria in the absence of substrates that can liberate CO2.\n(§4) The main fermenters were inoculated with the preculture of B. breve at an OD600 of 0.05. For the B. longum subspecies infantis and bifidum mix the individual precultures were first mixed in an equal amount based on OD600 and subsequently also inoculated with a start OD600 of 0.05. The medium was stirred at 360 rpm by magnet stirring bar. The pH was controlled at 6.2 by addition of 5M NaOH. All growth (precultures, main fermenters, agar plates) experiments were performed at 37° C. Growth was monitored in time by off-line OD600 measurement. Samples were diluted before measurement where appropriate."}, "[2]": {"test_system": "Bifidobacterium breve DSM20213 (urease negative)", "assay": "Fermenter growth of urease negative Bifidobacterium with or without urea and CO2 (Example 3, first experiment)", "conditions": "urea N source (100 mM), lactose 20 g/l", "text": "as §1, §2, §3, §4"}, "[3]": {"test_system": "urease negative Bifidobacteria (Bifidobacterium breve DSM20213)", "assay": "Growth with urea or tryptone as nitrogen source, scGOS/IcFOS as carbon source (Example 3, second experiment), urease negative", "conditions": "CO2 gas, 50 mM urea, scGOS/IcFOS 20 g/l"}}, "data": [{"smiles": "NC(N)=O", "note": "[urea]", "values": [{"measurement": "Growth expressed as OD600", "setting": "[1]; CO2 gas, 60 min", "result": 0.099, "unit": "OD600"}, {"measurement": "Growth expressed as OD600", "setting": "[1]; CO2 gas, 180 min", "result": 0.168, "unit": "OD600"}, {"measurement": "Growth expressed as OD600", "setting": "[1]; CO2 gas, 360 min", "result": 0.680, "unit": "OD600"}, {"measurement": "Growth expressed as OD600", "setting": "[1]; CO2 gas, 660 min", "result": 3.940, "unit": "OD600"}, {"measurement": "Growth expressed as OD600", "setting": "[1]; CO2 gas, 23 h", "result": 3.850, "unit": "OD600"}, {"measurement": "Growth expressed as OD600", "setting": "[1]; N2 gas, 60 min", "result": 0.095, "unit": "OD600"}, {"measurement": "Growth expressed as OD600", "setting": "[1]; N2 gas, 180 min", "result": 0.161, "unit": "OD600"}, {"measurement": "Growth expressed as OD600", "setting": "[1]; N2 gas, 360 min", "result": 0.560, "unit": "OD600"}, {"measurement": "Growth expressed as OD600", "setting": "[1]; N2 gas, 660 min", "result": 3.930, "unit": "OD600"}, {"measurement": "Growth expressed as OD600", "setting": "[1]; N2 gas, 23 h", "result": 3.700, "unit": "OD600"}, {"measurement": "Growth expressed as OD600", "setting": "[2]; CO2 gas, 60 min", "result": 0.062, "unit": "OD600"}, {"measurement": "Growth expressed as OD600", "setting": "[2]; CO2 gas, 180 min", "result": 0.083, "unit": "OD600"}, {"measurement": "Growth expressed as OD600", "setting": "[2]; CO2 gas, 360 min", "result": 0.211, "unit": "OD600"}, {"measurement": "Growth expressed as OD600", "setting": "[2]; CO2 gas, 660 min", "result": 1.560, "unit": "OD600"}, {"measurement": "Growth expressed as OD600", "setting": "[2]; CO2 gas, 23 h", "result": 2.250, "unit": "OD600"}, {"measurement": "Growth expressed as OD600", "setting": "[2]; N2 gas, 60 min", "result": 0.051, "unit": "OD600"}, {"measurement": "Growth expressed as OD600", "setting": "[2]; N2 gas, 180 min", "result": 0.061, "unit": "OD600"}, {"measurement": "Growth expressed as OD600", "setting": "[2]; N2 gas, 360 min", "result": 0.072, "unit": "OD600"}, {"measurement": "Growth expressed as OD600", "setting": "[2]; N2 gas, 660 min", "result": 0.054, "unit": "OD600"}, {"measurement": "Growth expressed as OD600", "setting": "[2]; N2 gas, 23 h", "result": 0.046, "unit": "OD600"}, {"measurement": "Growth expressed as OD600", "setting": "[3]; 15 min", "result": 0.074, "unit": "OD600"}, {"measurement": "Growth expressed as OD600", "setting": "[3]; 135 min", "result": 0.125, "unit": "OD600"}, {"measurement": "Growth expressed as OD600", "setting": "[3]; 270 min", "result": 0.280, "unit": "OD600"}, {"measurement": "Growth expressed as OD600", "setting": "[3]; 445 min", "result": 0.460, "unit": "OD600"}, {"measurement": "Growth expressed as OD600", "setting": "[3]; 625 min", "result": 0.590, "unit": "OD600"}, {"measurement": "Growth expressed as OD600", "setting": "[3]; 24 h", "result": 1.020, "unit": "OD600"}]}]}
